≈ marks a conversion by molar mass, not a printed value.
Key:
Format in all cases: functional
Escherichia coli = test: Antimicrobial activity against Escherichia coli ATCC 11775 after 48 hr by two-fold serial broth dilution method; conditions: ATCC 11775, 48 h
Pseudomonas aeruginosa [1] = test: Antimicrobial activity against Pseudomonas aeruginosa ATCC 10145 after 48 hr by two-fold serial broth dilution method; conditions: ATCC 10145, 48 h
Bacillus subtilis = test: Antimicrobial activity against Bacillus subtilis ATCC 6633 after 48 hr by two-fold serial broth dilution method; conditions: ATCC 6633, 48 h
Candida albicans = test: Antimicrobial activity against Candida albicans DSM 70014 after 48 hr by two-fold serial broth dilution method; conditions: DSM 70014, 48 h
Staphylococcus aureus = test: Antimicrobial activity against Staphylococcus aureus DSM 1104 after 48 hr by two-fold serial broth dilution method; conditions: DSM 1104, 48 h
Pseudomonas aeruginosa [2] = test: Ratio of ampicillin MIC to compound MIC for Pseudomonas aeruginosa ATCC 10145 after 48 hr by two-fold serial broth dilution method
UO-31 = test: Growth inhibition of Homo sapiens (human) UO31 cells at 10 uM after 48 hr by SRB assay; conditions: UO-31, 48 h, read-out: GI
T47D = test: Growth inhibition of Homo sapiens (human) T47D cells at 10 uM after 48 hr by SRB assay; conditions: read-out: GI
SR = test: Growth inhibition of Homo sapiens (human) SR cells at 10 uM after 48 hr by SRB assay; conditions: read-out: GI

Row | SMILES | MBC (Escherichia coli) | MIC (Escherichia coli) | MBC (Pseudomonas aeruginosa [1]) | MIC (Pseudomonas aeruginosa [1]) | MBC (Bacillus subtilis) | MIC (Bacillus subtilis) | MFC (Candida albicans) | MIC (Candida albicans) | MBC (Staphylococcus aureus) | MIC (Staphylococcus aureus) | Ratio (Pseudomonas aeruginosa [2]) | inhibition of growth at 10 µM (UO-31) | inhibition of growth at 10 µM (T47D) | inhibition of growth at 10 µM (SR)
1 | COc1ccc(OC)c(/C=C/C(=O)N/N=C/c2ccc([N+](=O)[O-])cc2)c1 | 50 mg/L (≈ 141 µM) | 50 mg/L (≈ 141 µM) | 50 mg/L (≈ 141 µM) | 50 mg/L (≈ 141 µM) | 50 mg/L (≈ 141 µM) | 50 mg/L (≈ 141 µM) | 50 mg/L (≈ 141 µM) | 50 mg/L (≈ 141 µM) | 100 mg/L (≈ 281 µM) | 100 mg/L (≈ 281 µM) |  |  |  | 
2 | COc1ccc(OC)c(/C=C/C2=NN(C(C)=O)C(c3ccccc3)O2)c1 (configuration not stated) | 100 mg/L (≈ 284 µM) | 100 mg/L (≈ 284 µM) | 100 mg/L (≈ 284 µM) | 100 mg/L (≈ 284 µM) | 50 mg/L (≈ 142 µM) | 50 mg/L (≈ 142 µM) | 50 mg/L (≈ 142 µM) | 50 mg/L (≈ 142 µM) | 50 mg/L (≈ 142 µM) | 25 mg/L (≈ 70.9 µM) |  |  |  | 
3 | COc1ccc(OC)c(/C=C/C2=NN(C(C)=O)C(c3ccc(Cl)cc3)O2)c1 (configuration not stated) | 50 mg/L (≈ 129 µM) | 25 mg/L (≈ 64.6 µM) | 50 mg/L (≈ 129 µM) | 25 mg/L (≈ 64.6 µM) | 50 mg/L (≈ 129 µM) | 50 mg/L (≈ 129 µM) | 100 mg/L (≈ 259 µM) | 50 mg/L (≈ 129 µM) | 100 mg/L (≈ 259 µM) | 100 mg/L (≈ 259 µM) |  |  |  | 
4 | COc1ccc(OC)c(/C=C/C2=NN(C(C)=O)C(c3ccc([N+](=O)[O-])cc3)O2)c1 (configuration not stated) | 100 mg/L (≈ 252 µM) | 50 mg/L (≈ 126 µM) | 100 mg/L (≈ 252 µM) | 50 mg/L (≈ 126 µM) | 100 mg/L (≈ 252 µM) | 50 mg/L (≈ 126 µM) | 100 mg/L (≈ 252 µM) | 100 mg/L (≈ 252 µM) | 100 mg/L (≈ 252 µM) | 100 mg/L (≈ 252 µM) |  |  |  | 
5 | COc1ccc(OC)c(/C=C/c2nnc(S)n2-c2ccccc2)c1 | 50 mg/L (≈ 147 µM) | 25 mg/L (≈ 73.7 µM) | 100 mg/L (≈ 295 µM) | 100 mg/L (≈ 295 µM) | 50 mg/L (≈ 147 µM) | 50 mg/L (≈ 147 µM) | 100 mg/L (≈ 295 µM) | 100 mg/L (≈ 295 µM) | 50 mg/L (≈ 147 µM) | 50 mg/L (≈ 147 µM) |  |  |  | 
6 | COc1ccc(OC)c(/C=C/c2nnc(SC)n2-c2ccccc2)c1 | 50 mg/L (≈ 141 µM) | 50 mg/L (≈ 141 µM) | 50 mg/L (≈ 141 µM) | 25 mg/L (≈ 70.7 µM) | 50 mg/L (≈ 141 µM) | 50 mg/L (≈ 141 µM) | 50 mg/L (≈ 141 µM) | 50 mg/L (≈ 141 µM) | 50 mg/L (≈ 141 µM) | 50 mg/L (≈ 141 µM) | 2 | 44.5% | 41.8% | 
7 | CCSc1nnc(/C=C/c2cc(OC)ccc2OC)n1-c1ccccc1 | 100 mg/L (≈ 272 µM) | 100 mg/L (≈ 272 µM) | 100 mg/L (≈ 272 µM) | 100 mg/L (≈ 272 µM) | 100 mg/L (≈ 272 µM) | 100 mg/L (≈ 272 µM) | 50 mg/L (≈ 136 µM) | 50 mg/L (≈ 136 µM) | 100 mg/L (≈ 272 µM) | 100 mg/L (≈ 272 µM) |  |  |  | 
8 | CCSc1nnc(/C=C/c2cc(OC)ccc2OC)n1-c1ccc(Cl)cc1 | 50 mg/L (≈ 124 µM) | 50 mg/L (≈ 124 µM) | 50 mg/L (≈ 124 µM) | 50 mg/L (≈ 124 µM) | 100 mg/L (≈ 249 µM) | 50 mg/L (≈ 124 µM) | 50 mg/L (≈ 124 µM) | 50 mg/L (≈ 124 µM) | 100 mg/L (≈ 249 µM) | 100 mg/L (≈ 249 µM) |  |  |  | 
9 | COc1ccc(OC)c(/C=C/c2nnc(SC)n2-c2ccc(C)cc2)c1 | 50 mg/L (≈ 136 µM) | 50 mg/L (≈ 136 µM) | 25 mg/L (≈ 68 µM) | 12.5 mg/L (≈ 34 µM) | 50 mg/L (≈ 136 µM) | 50 mg/L (≈ 136 µM) | 50 mg/L (≈ 136 µM) | 50 mg/L (≈ 136 µM) | 50 mg/L (≈ 136 µM) | 50 mg/L (≈ 136 µM) | 4 |  |  | 
10 | CCSc1nnc(/C=C/c2cc(OC)ccc2OC)n1-c1ccc(C)cc1 | 100 mg/L (≈ 262 µM) | 100 mg/L (≈ 262 µM) | 100 mg/L (≈ 262 µM) | 100 mg/L (≈ 262 µM) | 100 mg/L (≈ 262 µM) | 50 mg/L (≈ 131 µM) | 100 mg/L (≈ 262 µM) | 100 mg/L (≈ 262 µM) | 100 mg/L (≈ 262 µM) | 100 mg/L (≈ 262 µM) |  |  |  | 
11 | COc1ccc(OC)c(/C=C/c2nnc(SCC(=O)c3cc(O)ccc3O)n2-c2ccccc2)c1 | 25 mg/L (≈ 51.1 µM) | 12.5 mg/L (≈ 25.5 µM) | 25 mg/L (≈ 51.1 µM) | 12.5 mg/L (≈ 25.5 µM) | 50 mg/L (≈ 102 µM) | 25 mg/L (≈ 51.1 µM) | 50 mg/L (≈ 102 µM) | 50 mg/L (≈ 102 µM) | 50 mg/L (≈ 102 µM) | 25 mg/L (≈ 51.1 µM) | 4 |  |  | 
12 | COc1ccc(OC)c(/C=C/c2nnc(SCC(=O)c3cc(O)ccc3O)n2-c2ccc(Cl)cc2)c1 | 50 mg/L (≈ 95.4 µM) | 25 mg/L (≈ 47.7 µM) | 25 mg/L (≈ 47.7 µM) | 12.5 mg/L (≈ 23.9 µM) | 25 mg/L (≈ 47.7 µM) | 12.5 mg/L (≈ 23.9 µM) | 50 mg/L (≈ 95.4 µM) | 25 mg/L (≈ 47.7 µM) | 50 mg/L (≈ 95.4 µM) | 50 mg/L (≈ 95.4 µM) | 4 |  |  | 
13 | COc1ccc(OC)c(/C=C/c2nnc(Nc3ccc(C)cc3)o2)c1 | 50 mg/L (≈ 148 µM) | 50 mg/L (≈ 148 µM) | 50 mg/L (≈ 148 µM) | 50 mg/L (≈ 148 µM) | 100 mg/L (≈ 296 µM) | 100 mg/L (≈ 296 µM) | 100 mg/L (≈ 296 µM) | 100 mg/L (≈ 296 µM) | 100 mg/L (≈ 296 µM) | 100 mg/L (≈ 296 µM) |  |  |  | 
14 | COc1ccc(OC)c(/C=C/c2nnc(Nc3ccccc3)s2)c1 | 50 mg/L (≈ 147 µM) | 50 mg/L (≈ 147 µM) | 100 mg/L (≈ 295 µM) | 100 mg/L (≈ 295 µM) | 100 mg/L (≈ 295 µM) | 100 mg/L (≈ 295 µM) | 50 mg/L (≈ 147 µM) | 50 mg/L (≈ 147 µM) | 50 mg/L (≈ 147 µM) | 50 mg/L (≈ 147 µM) |  |  |  | 
15 | COc1ccc(OC)c(/C=C/c2nnc(Nc3ccc(Cl)cc3)s2)c1 | 100 mg/L (≈ 267 µM) | 100 mg/L (≈ 267 µM) | 100 mg/L (≈ 267 µM) | 100 mg/L (≈ 267 µM) | 100 mg/L (≈ 267 µM) | 100 mg/L (≈ 267 µM) | 50 mg/L (≈ 134 µM) | 25 mg/L (≈ 66.9 µM) | 100 mg/L (≈ 267 µM) | 25 mg/L (≈ 66.9 µM) |  |  |  | 32.1%
16 | COc1ccc(OC)c(/C=C/c2nnc(Nc3ccc(C)cc3)s2)c1 | 200 mg/L (≈ 566 µM) | 100 mg/L (≈ 283 µM) | 100 mg/L (≈ 283 µM) | 100 mg/L (≈ 283 µM) | 100 mg/L (≈ 283 µM) | 100 mg/L (≈ 283 µM) | 50 mg/L (≈ 141 µM) | 50 mg/L (≈ 141 µM) | 100 mg/L (≈ 283 µM) | 100 mg/L (≈ 283 µM) |  |  |  | 
17 | CC1(C)S[C@@H]2[C@H](NC(=O)[C@H](N)c3ccccc3)C(=O)N2[C@H]1C(=O)O.O.O.O [AMPICILLIN TRIHYDRATE] |  | 10 mg/L |  | 50 mg/L |  | 12.5 mg/L |  |  |  | 5 mg/L |  |  |  | 
18 | Clc1ccccc1C(c1ccccc1)(c1ccccc1)n1ccnc1 [CLOTRIMAZOLE] |  |  |  |  |  |  |  | 5 mg/L (≈ 14.5 µM) |  |  |  |  |  | 
